Patent US12187663B2, “Thyromimetics with a biphenylmethane scaffold and their use” (INTERNATIONAL SOCIETY FOR DRUG DEVELOPMENT S.R.L., priority 2019, dated 2025)

Test: Panel of early-toxicity assays (in vitro ADME-TOX profiling)
Conditions: 10 μM of each compound
Procedure: FIG. 5. ADME-TOX profiling In order to assess the ADME-TOX profile of new synthetized compounds a full panel of in vitro assays was performed. Cytotoxic effects were evaluated on 4 different cell lines (U2-OS, HEK293, hTERT, MCF-7) at 24 h and 48 h after treatment with new compounds. Cardiac toxicity was assessed evaluating the inhibition effect of compounds on the hERG ion-channel, an important anti-target involved in heart functionalities. Metabolic interference was evaluated testing inhibitory effects of new compounds on four isoforms of CYP450 (CYP2C9, CYP2C19, CYP2D6, CYP3A4). In order to assess off-target liabilities, the inhibitory effects have been assessed against several well-known off-targets. […] The data were collected and analyzed in the form of a traffic-light system using criteria shown below.
Test compounds (20 nL of 10 mM top concentration in 100% v/v DMSO), positive control (PC; Valinomycin with final concentration of 10 μM and 0.1% v/v DMSO) and NC (final 0.1% v/v DMSO) were added in an empty polystyrene 384-well cell culture microtiter plate using the Echo 550 Liquid Handler and stored at room temperature before cell's seeding. […] At 24 h and 48 h post-treatment, 20 μL/well of CTG detection mix were added, and plates were read using an EnVision Multilabel 2103 Reader after a 10-min incubation in the dark. […]

| Compound | early-toxicity / liability profile (% inhibition heat map) |
| --- | --- |
| Cc1cc(OCC(=O)O)cc(C)c1Cc1ccc(N)c(C(C)C)c1 [IS25, 2-(4-(4-amino-3-isopropylbenzyl)-3,5-dimethylphenoxy)acetic acid] | safer profile |
| CC(=O)Nc1ccc(Cc2c(C)cc(OCC(=O)O)cc2C)cc1C(C)C [TG68, 2-(4-(4-acetamido-3-isopropylbenzyl)-3,5-dimethylphenoxy)acetic acid] | safer profile |
